Measured values: patent US11986485B1, “Compositions and methods for treating epilepsy” (POVIVA CORP, priority 2023, dated 2024)
“Also recorded” adds a separate entry of the source.

Test: Hepatic markers (ALT, AST, ALP, GGT, total bilirubin) during 5-week administration
Type: in vivo, humans
Method: The study protocol was registered at the ClinicalTrials.gov (accessed on 7 Apr. 2022) (NCT05346562). […] Following a two-week washout, participants then repeated testing for another five weeks under different conditions. Participants visited the laboratory on 6 occasions in total (3 in each study arm), each time following an overnight fast. The complete course of the study was performed at the Department for Integrative Physiology, University of Split School of Medicine, Split, Croatia. The study design, implementation, and reporting followed the CONSORT guidelines, including the 25-item checklist and a flow diagram. The study was conducted according to the guidelines of the Declaration of Helsinki and was approved by the Ethics Committee of University of Split School of Medicine on 15 Dec. 2021 (Class: 003-08/21-03/0003; Reg. No.: 2181-198-03-04-21-0091). Prior to enrollment in the study, every participant was informed about the procedures, course, and purpose of the research and each of them individually signed an informed written consent.
Each patient visited the laboratory 6 times in total. During each visit, a sample of venous blood was taken from forearm following an overnight fast and sample of urine was obtained. All blood and urine samples were analyzed in the same certified institutional biochemical laboratory, using the standard operating procedures.
Hepatic (ALT, AST, ALP, GGT, and total bilirubin) markers were also measured.
Moreover, these changes we<1 standard deviation and therefore viewed as not clinically meaningful. As noted earlier, >3SD over normative values were classified as an AE.

[1] = 5 weeks administration, versus placebo
[2] = 5 weeks administration, versus placebo, listed as CBD

C=C(C)[C@@H]1CCC(C)=C[C@H]1c1c(O)cc(CCCCC)cc1O [Cannabidiol, 2-[(1R,6R)-6-Isopropenyl-3-methylcyclohex-2-en-1-yl]-5-pentylbenzene-1,3-diol]
plasma alanine transaminase (ALT) [1]: remained effectively unchanged over time | plasma alkaline phosphatase (ALP) [1]: remained effectively unchanged over time | plasma total bilirubin [1]: remained effectively unchanged over time | plasma aspartate transaminase (AST) [2]: higher in the placebo condition; also recorded: remained effectively unchanged over time | plasma gamma-glutamyl transferase (GGT) [2]: slightly higher; also recorded: remained effectively unchanged over time | size of GGT and AST changes (viewed as not clinically meaningful): < 1 standard deviation
